Laboratory results published in patent US12661345B2, “Compositions for the treatment of hypertension” (The George Institute for Global Health, priority 2017, dated 2026).

System: participants with migraine
Test: Safety: serious adverse events and adverse events of special interest in the 3×3 factorial trial
[1] = Anytime between Week 0 to Week 12, % of participants
[2] = Anytime between Week 0 to Week 12, n/N participants
[3] = Randomization, % of participants
[4] = Randomization, n/N participants

With `CCC(C)(C)C(=O)O[C@H]1C[C@@H](C)C=C2C=C[C@H](C)[C@H](CC[C@@H]3C[C@@H](O)CC(=O)O3)[C@H]21` [Simvastatin, simvastatin] the “Subjects with any serious adverse event (SAE) in 12 weeks (n/N)” value (12 weeks) was 0/9, the “Subjects with any serious adverse event (SAE) in 12 weeks (percent)” value (12 weeks) was 0.0% and the “Any SAEs” value [1] was “(0.0%)”. For the same compound, the Bradycardia [1] was “(0.0%)”, the Falls [1] was “(0.0%)” and the Feeling faint/dizziness [1] was “(33.3%)”. For the same compound, the Flushing [1] was “(11.1%)”, the Gastrointestinal complaints [1] was “(22.2%)” and the Gout [1] was “(0.0%)”. The Headache [1] was “(100.0%)”, the Insomnia [1] was “(22.2%)” and the Muscle cramps [1] was “(11.1%)”. For the same compound, the Myalgia [1] was “(0.0%)”, the Nightmares [1] was “(11.1%)” and the Pedal edema [1] was “(0.0%)”. The Skin rash/itching [1] was “(11.1%)”, the Syncope [1] was “(0.0%)” and the “Any SAEs” value [2] was 0/9. The Bradycardia [2] was 0/9, the Falls [2] was 0/9 and the Feeling faint/dizziness [2] was 3/9. For the same compound, the Flushing [2] was 1/9, the Gastrointestinal complaints [2] was 2/9 and the Gout [2] was 0/9. The Headache [2] was 9/9, the Insomnia [2] was 2/9 and the Muscle cramps [2] was 1/9. The Myalgia [2] was 0/9, the Nightmares [2] was 1/9 and the Pedal edema [2] was 0/9. The Skin rash/itching [2] was 1/9, the Syncope [2] was 0/9 and the “Any SAEs since the last visit?” value [3] was “(0.0%)”. For the same compound, the Bradycardia [3] was “(0.0%)”, the Falls [3] was “(11.1%)” and the Feeling faint/dizziness [3] was “(22.2%)”. The Flushing [3] was “(33.3%)”, the Gastrointestinal complaints [3] was “(0.0%)” and the Gout [3] was “(0.0%)”. For the same compound, the Headache [3] was “(100.0%)”, the Insomnia [3] was “(22.2%)” and the Muscle cramps [3] was “(22.2%)”. The Myalgia [3] was “(0.0%)”, the Nightmares [3] was “(11.1%)” and the Pedal edema [3] was “(0.0%)”. For the same compound, the Skin rash/itching [3] was “(0.0%)”, the Syncope [3] was “(0.0%)” and the “Any SAEs since the last visit?” value [4] was 0/9. For the same compound, the Bradycardia [4] was 0/9, the Falls [4] was 1/9 and the Feeling faint/dizziness [4] was 2/9. For the same compound, the Flushing [4] was 3/9, the Gastrointestinal complaints [4] was 0/9 and the Gout [4] was 0/9. The Headache [4] was 9/9, the Insomnia [4] was 2/9 and the Muscle cramps [4] was 2/9. The Myalgia [4] was 0/9, the Nightmares [4] was 1/9 and the Pedal edema [4] was 0/9. The Skin rash/itching [4] was 0/9, the Syncope [4] was 0/9 and the “Any SAEs since the last visit?” value (Week 4, % of participants) was “(0.0%)”. For the same compound, the Bradycardia (Week 4, % of participants) was “(0.0%)”, the Falls (Week 4, % of participants) was “(0.0%)” and the Feeling faint/dizziness (Week 4, % of participants) was “(22.2%)”. For the same compound, the Flushing (Week 4, % of participants) was “(11.1%)”, the Gastrointestinal complaints (Week 4, % of participants) was “(11.1%)” and the Gout (Week 4, % of participants) was “(0.0%)”. The Headache (Week 4, % of participants) was “(100.0%)”, the Insomnia (Week 4, % of participants) was “(22.2%)” and the Muscle cramps (Week 4, % of participants) was “(0.0%)”. The Myalgia (Week 4, % of participants) was “(0.0%)”, the Nightmares (Week 4, % of participants) was “(0.0%)” and the Pedal edema (Week 4, % of participants) was “(0.0%)”. For the same compound, the Skin rash/itching (Week 4, % of participants) was “(0.0%)”, the Syncope (Week 4, % of participants) was “(0.0%)” and the “Any SAEs since the last visit?” value (Week 4, n/N participants) was 0/9. For the same compound, the Bradycardia (Week 4, n/N participants) was 0/9, the Falls (Week 4, n/N participants) was 0/9 and the Feeling faint/dizziness (Week 4, n/N participants) was 2/9. The Flushing (Week 4, n/N participants) was 1/9, the Gastrointestinal complaints (Week 4, n/N participants) was 1/9 and the Gout (Week 4, n/N participants) was 0/9. The Headache (Week 4, n/N participants) was 9/9, the Insomnia (Week 4, n/N participants) was 2/9 and the Muscle cramps (Week 4, n/N participants) was 0/9. The Myalgia (Week 4, n/N participants) was 0/9, the Nightmares (Week 4, n/N participants) was 0/9 and the Pedal edema (Week 4, n/N participants) was 0/9. For the same compound, the Skin rash/itching (Week 4, n/N participants) was 0/9, the Syncope (Week 4, n/N participants) was 0/9 and the “Any SAEs since the last visit?” value (Week 8, % of participants) was “(0.0%)”. The Bradycardia (Week 8, % of participants) was “(0.0%)”, the Falls (Week 8, % of participants) was “(0.0%)” and the Feeling faint/dizziness (Week 8, % of participants) was “(11.1%)”. For the same compound, the Flushing (Week 8, % of participants) was “(11.1%)”, the Gastrointestinal complaints (Week 8, % of participants) was “(11.1%)” and the Gout (Week 8, % of participants) was “(0.0%)”. For the same compound, the Headache (Week 8, % of participants) was “(88.9%)”, the Insomnia (Week 8, % of participants) was “(22.2%)” and the Muscle cramps (Week 8, % of participants) was “(0.0%)”. The Myalgia (Week 8, % of participants) was “(0.0%)”, the Nightmares (Week 8, % of participants) was “(0.0%)” and the Pedal edema (Week 8, % of participants) was “(0.0%)”. For the same compound, the Skin rash/itching (Week 8, % of participants) was “(0.0%)”, the Syncope (Week 8, % of participants) was “(0.0%)” and the “Any SAEs since the last visit?” value (Week 8, n/N participants) was 0/9. For the same compound, the Bradycardia (Week 8, n/N participants) was 0/9, the Falls (Week 8, n/N participants) was 0/9 and the Feeling faint/dizziness (Week 8, n/N participants) was 1/9. The Flushing (Week 8, n/N participants) was 1/9, the Gastrointestinal complaints (Week 8, n/N participants) was 1/9 and the Gout (Week 8, n/N participants) was 0/9. The Headache (Week 8, n/N participants) was 8/9, the Insomnia (Week 8, n/N participants) was 2/9 and the Muscle cramps (Week 8, n/N participants) was 0/9. The Myalgia (Week 8, n/N participants) was 0/9, the Nightmares (Week 8, n/N participants) was 0/9 and the Pedal edema (Week 8, n/N participants) was 0/9. The Skin rash/itching (Week 8, n/N participants) was 0/9, the Syncope (Week 8, n/N participants) was 0/9 and the “Any SAEs since the last visit?” value (Week 12, % of participants) was “(0.0%)”. For the same compound, the Bradycardia (Week 12, % of participants) was “(0.0%)”, the Falls (Week 12, % of participants) was “(0.0%)” and the Feeling faint/dizziness (Week 12, % of participants) was “(0.0%)”. The Flushing (Week 12, % of participants) was “(0.0%)”, the Gastrointestinal complaints (Week 12, % of participants) was “(22.2%)” and the Gout (Week 12, % of participants) was “(0.0%)”. The Headache (Week 12, % of participants) was “(88.9%)”, the Insomnia (Week 12, % of participants) was “(22.2%)” and the Muscle cramps (Week 12, % of participants) was “(11.1%)”. For the same compound, the Myalgia (Week 12, % of participants) was “(0.0%)”, the Nightmares (Week 12, % of participants) was “(11.1%)” and the Pedal edema (Week 12, % of participants) was “(0.0%)”. For the same compound, the Skin rash/itching (Week 12, % of participants) was “(11.1%)”, the Syncope (Week 12, % of participants) was “(0.0%)” and the “Any SAEs since the last visit?” value (Week 12, n/N participants) was 0/9. For the same compound, the Bradycardia (Week 12, n/N participants) was 0/9, the Falls (Week 12, n/N participants) was 0/9 and the Feeling faint/dizziness (Week 12, n/N participants) was 0/9. For the same compound, the Flushing (Week 12, n/N participants) was 0/9, the Gastrointestinal complaints (Week 12, n/N participants) was 2/9 and the Gout (Week 12, n/N participants) was 0/9. For the same compound, the Headache (Week 12, n/N participants) was 8/9, the Insomnia (Week 12, n/N participants) was 2/9 and the Muscle cramps (Week 12, n/N participants) was 1/9. The Myalgia (Week 12, n/N participants) was 0/9, the Nightmares (Week 12, n/N participants) was 1/9 and the Pedal edema (Week 12, n/N participants) was 0/9. For the same compound, the Skin rash/itching (Week 12, n/N participants) was 1/9, the Syncope (Week 12, n/N participants) was 0/9 and the “Any SAEs since the last visit?” value (Week 13, % of participants) was “(0.0%)”. The Bradycardia (Week 13, % of participants) was “(0.0%)”, the Falls (Week 13, % of participants) was “(0.0%)” and the Feeling faint/dizziness (Week 13, % of participants) was “(11.1%)”. The Flushing (Week 13, % of participants) was “(0.0%)”, the Gastrointestinal complaints (Week 13, % of participants) was “(11.1%)” and the Gout (Week 13, % of participants) was “(0.0%)”. The Headache (Week 13, % of participants) was “(100.0%)”, the Insomnia (Week 13, % of participants) was “(11.1%)” and the Muscle cramps (Week 13, % of participants) was “(22.2%)”. The Myalgia (Week 13, % of participants) was “(11.1%)”, the Nightmares (Week 13, % of participants) was “(11.1%)” and the Pedal edema (Week 13, % of participants) was “(0.0%)”. For the same compound, the Rebound hypertension (Week 13, % of participants) was “(0.0%)”, the Skin rash/itching (Week 13, % of participants) was “(11.1%)” and the Syncope (Week 13, % of participants) was “(0.0%)”. For the same compound, the “Any SAEs since the last visit?” value (Week 13, n/N participants) was 0/9, the Bradycardia (Week 13, n/N participants) was 0/9 and the Falls (Week 13, n/N participants) was 0/9. For the same compound, the Feeling faint/dizziness (Week 13, n/N participants) was 1/9, the Flushing (Week 13, n/N participants) was 0/9 and the Gastrointestinal complaints (Week 13, n/N participants) was 1/9. The Gout (Week 13, n/N participants) was 0/9, the Headache (Week 13, n/N participants) was 9/9 and the Insomnia (Week 13, n/N participants) was 1/9. For the same compound, the Muscle cramps (Week 13, n/N participants) was 2/9, the Myalgia (Week 13, n/N participants) was 1/9 and the Nightmares (Week 13, n/N participants) was 1/9. For the same compound, the Pedal edema (Week 13, n/N participants) was 0/9, the Rebound hypertension (Week 13, n/N participants) was 0/9 and the Skin rash/itching (Week 13, n/N participants) was 1/9. The Syncope (Week 13, n/N participants) was 0/9, the “Any SAEs since the last visit?” value (Week 16, % of participants) was “(11.1%)” and the Bradycardia (Week 16, % of participants) was “(0.0%)”. For the same compound, the Falls (Week 16, % of participants) was “(11.1%)”, the Feeling faint/dizziness (Week 16, % of participants) was “(22.2%)” and the Headache (Week 16, % of participants) was “(77.8%)”. The Muscle cramps (Week 16, % of participants) was “(0.0%)”, the Pedal edema (Week 16, % of participants) was “(0.0%)” and the Syncope (Week 16, % of participants) was “(0.0%)”. For the same compound, the “Any SAEs since the last visit?” value (Week 16, n/N participants) was 1/9, the Bradycardia (Week 16, n/N participants) was 0/9 and the Falls (Week 16, n/N participants) was 1/9. The Feeling faint/dizziness (Week 16, n/N participants) was 2/9, the Headache (Week 16, n/N participants) was 7/9 and the Muscle cramps (Week 16, n/N participants) was 0/9. For the same compound, the Pedal edema (Week 16, n/N participants) was 0/9 and the Syncope (Week 16, n/N participants) was 0/9.
